Laboratory results taken from ChEMBL document CHEMBL1201862, “PubChem BioAssay data set” (2004).
Calls of active or inactive are those of the source.

What was measured:
SUMO-activating enzyme = SUMO-activating enzyme (Homo sapiens, UniProt Q9UBT2); test: SUMOylation inhibitor hit validation, confirmation, SUMOylation inhibitor project, biochemical, AlphaScreen (AID 2018); assay type: functional
Cannabinoid receptor 2 [1] = target: T1, Cannabinoid receptor 2 (Homo sapiens, UniProt P34972); test: SAR analysis of agonists of the Cannabinoid Receptor 2 using an Image-Based Assay - Set 2. [Related pubchem assays (depositor defined):AID1961, AID1965]; assay type: functional
Cannabinoid receptor 1 = Cannabinoid receptor 1 (Homo sapiens, UniProt P21554); test: SAR analysis of antagonists of the Cannabinoid Receptor 1 using an Image-Based Assay. [Related pubchem assays (depositor defined):AID1961, AID1965]; assay type: functional
[2] = target: T2, G-protein coupled receptor 55 (Homo sapiens, UniProt Q9Y2T6); test: GPR55 agonists via beta-arrestin recruitment, primary screen, imaging, U2OS cells, beta-arrestin-GFP redistribution (AID 1961); assay type: functional
[3] = target: T2, G-protein coupled receptor 55; test: SAR analysis of selective Agonists of GPR55 using an Image-Based Assay. [Related pubchem assays (depositor defined):AID1961, AID1965]; assay type: functional
Cannabinoid receptor 2 [4] = target: T1, Cannabinoid receptor 2; test: SAR analysis of antagonists of the Cannabinoid Receptor 2 using an Image-Based Assay - Set 2. [Related pubchem assays (depositor defined):AID1961, AID1965]; assay type: functional
[5] = target: Disintegrin and metalloproteinase domain-containing protein 17 (Homo sapiens, UniProt P78536); test: ADAM17 protease inhibitors, dose response, counter-screen for ADAM10 exosite inhibitor project, biochemical, quenched FRET substrate (AID 743253)
[6] = ADAM10 inhibitors, peptide cleavage, dose response, biochemical, QFRET (AID 743254);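 further: ADAM10 enzyme with the DM2 quenched FRET peptide as substrate; EDANS fluorescence gain as the protease cuts the substrate; inhibitor potency against ADAM10 proteolytic activity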
[7] = growth suppression of PTEN-null colon cells, dose response, cell-based, HCT116 PTEN knockout (AID 1047); assay type: functional;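 further: HCT116 colon tumor cells with PTEN knocked out; cells exposed to compound for 60 hours before readout; potency for loss of cell viability measured by luminescence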
Streptokinase A = target: T3, Streptokinase A (Streptococcus pyogenes serotype M1, UniProt P10520); test: S. pyogenes streptokinase expression inhibitors, potency, dose response, plasminogen activation absorbance, OD405 (AID 1914); assay type: functional, Streptococcus pyogenes M1 GAS;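 further: secreted streptokinase activity via plasminogen activation per viability signal from cell pellet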
T3 sequence (P10520 whole entry): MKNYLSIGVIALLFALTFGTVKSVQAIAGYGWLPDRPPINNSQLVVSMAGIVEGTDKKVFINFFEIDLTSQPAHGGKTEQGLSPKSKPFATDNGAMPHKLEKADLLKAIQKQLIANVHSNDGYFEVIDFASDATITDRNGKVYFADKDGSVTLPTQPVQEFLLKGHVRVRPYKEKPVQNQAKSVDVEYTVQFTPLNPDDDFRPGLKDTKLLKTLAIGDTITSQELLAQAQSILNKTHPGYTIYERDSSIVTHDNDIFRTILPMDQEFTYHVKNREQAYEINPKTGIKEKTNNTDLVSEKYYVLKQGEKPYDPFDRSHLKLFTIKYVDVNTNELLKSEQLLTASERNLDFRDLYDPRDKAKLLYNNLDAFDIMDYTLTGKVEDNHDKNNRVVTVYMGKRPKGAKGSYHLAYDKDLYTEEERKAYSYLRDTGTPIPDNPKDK

[8] = target: T4, Delta-type opioid receptor (Homo sapiens, UniProt P41143); test: DOR antagonists, SAR follow-up, image-based (AID 2357); assay type: functional
Mu-type opioid receptor [9] = target: T5, Mu-type opioid receptor (Homo sapiens, UniProt P35372); test: MOR antagonists, SAR follow-up, image-based (AID 2420); assay type: functional;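 further: compounds added before stimulation of receptor with agonist DAMGO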
Mu-type opioid receptor [10] = target: T5, Mu-type opioid receptor; test: MOR agonists by imaging, SAR follow-up, image-based (AID 2352); assay type: functional
[11] = target: T6, Tyrosine-protein phosphatase non-receptor type 7 (Homo sapiens, UniProt P35236); test: SAR analysis of chemical inhibitors of HePTP using a Fluorescent assay - Set 2. [Related pubchem assays (depositor defined):AID1059, AID1077, AID1661, AID2085, AID521]; assay type: functional
T6 sequence (P35236 whole entry): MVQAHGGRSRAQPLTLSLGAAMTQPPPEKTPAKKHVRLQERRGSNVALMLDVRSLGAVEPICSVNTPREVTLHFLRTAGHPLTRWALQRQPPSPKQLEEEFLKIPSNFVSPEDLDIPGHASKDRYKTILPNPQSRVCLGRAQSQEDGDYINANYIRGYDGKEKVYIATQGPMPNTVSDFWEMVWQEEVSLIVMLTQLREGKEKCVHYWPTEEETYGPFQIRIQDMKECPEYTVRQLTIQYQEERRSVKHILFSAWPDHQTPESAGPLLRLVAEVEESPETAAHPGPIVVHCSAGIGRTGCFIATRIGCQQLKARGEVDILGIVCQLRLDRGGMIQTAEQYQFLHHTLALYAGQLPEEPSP

[12] = growth suppression of beta-catenin-knockout colon cells, dose response, cell-based, HCT116, human colon tumor (AID 1045); assay type: functional;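 further: HCT116 colon tumor cells with beta catenin knocked out; cells exposed to compound for 60 hours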
[13] = tested on: Streptococcus sp. 'group A'; test: growth inhibition of control SK(-) GAS strain, dose response, counter-screen for streptokinase expression inhibitor project, luminescence, kanamycin, BacTiterGlo, confirmation (AID 1900); assay type: functional, organism-based
[14] = target: T7, Kappa-type opioid receptor (Homo sapiens, UniProt P41145); test: KOR antagonists by imaging, SAR follow-up, image-based (AID 2348); assay type: functional
[15] = target: T4, Delta-type opioid receptor; test: DOR agonists, SAR follow-up, image-based (AID 2370); assay type: functional
[16] = target: T7, Kappa-type opioid receptor; test: kappa opioid receptor blockers, cell-based, luminescence, beta-arrestin, SAR follow-up (AID 2285); assay type: functional
[17] = target: Dual specificity protein phosphatase 3 (Homo sapiens, UniProt P51452); test: SAR VHR1 Fluorescent Assay for In Vitro dose response studies Set 2. [Related pubchem assays (depositor defined):AID1654, AID1661, AID1878]; assay type: functional
Streptococcus = test: Group A Streptococcus viability loss, dose response, counter-screen for streptokinase expression inhibitor project, luminescence, BacTiterGlo (AID 1915); assay type: functional, organism-based;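 further: potency for reduction of bacterial viability or growth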
[18] = target: T7, Kappa-type opioid receptor; test: KOR agonist analogs, imaging readout, SAR follow-up, image-based (AID 2359); assay type: functional
[19] = Luminescence Cell-Based Dose Retest to Confirm Inhibitors of Cancer Stem Cells. [Related pubchem assays (depositor defined):AID2717, AID2721]; assay type: functional; conditions: Homo sapiens
[20] = target: T8, Heat shock factor protein 1 (Mus musculus, UniProt P38532); test: inhibition of MG132-induced HSE-luciferase signal, confirmation, cell-based, NIH3T3, luminescence, dose retest (AID 2382); assay type: functional;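 further: NIH3T3 fibroblasts with HSF1-driven luciferase reporter stressed by proteasome inhibitor MG132; luminescence from HSF1-driven luciferase expression after 8 hours of MG132 stress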
T8 sequence (P38532 whole entry): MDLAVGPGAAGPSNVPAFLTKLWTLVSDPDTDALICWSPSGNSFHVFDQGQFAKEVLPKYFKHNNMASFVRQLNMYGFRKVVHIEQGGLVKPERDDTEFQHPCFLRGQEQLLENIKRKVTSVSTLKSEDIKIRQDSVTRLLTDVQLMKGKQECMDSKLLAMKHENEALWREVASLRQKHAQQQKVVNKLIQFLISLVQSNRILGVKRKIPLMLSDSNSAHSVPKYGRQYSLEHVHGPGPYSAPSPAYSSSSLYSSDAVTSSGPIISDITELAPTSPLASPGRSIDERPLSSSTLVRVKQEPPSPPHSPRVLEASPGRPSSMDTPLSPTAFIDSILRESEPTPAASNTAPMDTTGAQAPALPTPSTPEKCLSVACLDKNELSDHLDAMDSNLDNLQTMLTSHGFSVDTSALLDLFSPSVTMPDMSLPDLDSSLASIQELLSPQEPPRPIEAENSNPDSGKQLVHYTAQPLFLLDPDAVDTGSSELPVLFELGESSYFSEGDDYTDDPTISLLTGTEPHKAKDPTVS

[21] = target: Peroxisome proliferator-activated receptor gamma (Homo sapiens, UniProt P37231); test: PPARg partial agonists, dose response, cell-based, luminescence, assay provider (AID 504447); assay type: functional
Mu-type opioid receptor [22] = target: T5, Mu-type opioid receptor; test: HTS Image-Based Screen for Agonists of the MOR Receptor. [Related pubchem assays (depositor defined):AID1777, AID1785, AID1786, AID2133]; assay type: functional
[23] = target: T4, Delta-type opioid receptor; test: HTS Image-Based Screen for Antagonists of the DOR Receptor. [Related pubchem assays (depositor defined):AID1777, AID1785, AID1786, AID2133]; assay type: functional
Beta-galactosidase = Beta-galactosidase (Escherichia coli, UniProt Q8VNN2); assay type: functional
[24] = target: T7, Kappa-type opioid receptor; assay type: functional
[25] = target: T4, Delta-type opioid receptor; test: HTS Image-Based Screen for Agonists of the DOR Receptor. [Related pubchem assays (depositor defined):AID1777, AID1786, AID2133]; assay type: functional
[26] = target: T7, Kappa-type opioid receptor; assay type: functional; remark: listed apart in the source
Coagulation factor XII = target: T9, Coagulation factor XII (Homo sapiens, UniProt P00748); test: Factor XIIa Dose Response Confirmation from Single Well HTS. [Related pubchem assays (depositor defined):AID701]; assay type: functional
T9 sequence (P00748 whole entry): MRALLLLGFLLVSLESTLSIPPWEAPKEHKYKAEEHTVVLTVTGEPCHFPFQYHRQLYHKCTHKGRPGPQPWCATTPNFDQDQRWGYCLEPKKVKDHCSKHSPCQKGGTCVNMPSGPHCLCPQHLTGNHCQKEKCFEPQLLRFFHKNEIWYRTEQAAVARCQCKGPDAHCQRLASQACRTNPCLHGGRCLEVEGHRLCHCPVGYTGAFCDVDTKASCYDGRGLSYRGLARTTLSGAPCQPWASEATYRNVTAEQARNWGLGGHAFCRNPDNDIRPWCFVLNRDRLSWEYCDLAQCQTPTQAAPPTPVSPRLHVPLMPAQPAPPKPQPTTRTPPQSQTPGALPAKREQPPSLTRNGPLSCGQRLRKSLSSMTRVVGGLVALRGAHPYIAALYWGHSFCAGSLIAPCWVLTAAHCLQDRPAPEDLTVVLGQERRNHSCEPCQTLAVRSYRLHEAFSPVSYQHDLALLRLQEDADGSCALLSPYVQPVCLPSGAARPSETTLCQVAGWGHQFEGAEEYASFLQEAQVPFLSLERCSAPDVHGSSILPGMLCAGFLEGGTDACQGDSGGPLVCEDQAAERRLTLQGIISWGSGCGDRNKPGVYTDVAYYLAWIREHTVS

[27] = target: Heat shock protein HSP 90-alpha (Homo sapiens, UniProt P07900); assay type: functional, organism-based
Hexokinase HKDC1 = Hexokinase HKDC1 (Homo sapiens, UniProt Q2TB90); test: HKDC1 hexokinase activators, dose response, biochemical, W721R variant (AID 504730); assay type: functional
Nonstructural protein 1 = Nonstructural protein 1 (Influenza A virus, UniProt Q194T2); assay type: functional, Influenza A virus (A/California/07/2009(H1N1))
Hexokinase-1 = Hexokinase-1 (Homo sapiens, UniProt P19367); test: hexokinase 1 activators, dose response, selectivity assay for HKDC1 activator project, biochemical (AID 504762); assay type: functional
Troponin, cardiac muscle = Troponin, cardiac muscle (Homo sapiens, UniProt P19429+P45379+P63316); test: Fluorescence-based biochemical high throughput dose response assay for activators of the calcium sensitivity of cardiac Regulated Thin Filaments (RTF). [Related pubchem assays (depositor defined):AID493008, AID493018, AID504382, AID504383]; assay type: protein-complex assay
[28] = target: T10, Runt-related transcription factor 1/Core-binding factor subunit beta (Homo sapiens, UniProt Q01196+Q13951); test: inhibitors of RUNX1 Runt–CBFb-SMMHC binding, biochemical, TR-FRET (AID 1438); assay type: protein assay
[29] = target: T10, Runt-related transcription factor 1/Core-binding factor subunit beta; test: inhibitors of RUNX1 Runt–CBFb-SMMHC binding, primary screen, biochemical, FRET, Cerulean-Runt, Venus-CBFb-SMMHC, uHTS (AID 1434); assay type: protein assay;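 further: partner is the CBFb-SMMHC leukemia fusion protein rather than wild-type CBFb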

CCCCCn1c(N)c(C#N)c2nc3ccccc3nc21
IC50 (SUMO-activating enzyme): 15.7 µM (active)

Cc1cccc(N2CCN(C(=O)c3cc(S(=O)(=O)N(C)C)ccc3N3CCCC3)CC2)c1C
EC50 (Cannabinoid receptor 2 [1]): > 32 µM (inactive) | IC50 (Cannabinoid receptor 1): 21.7 µM (inactive) | EC50 [2]: 0.508 µM (active) | EC50 [3]: 0.263 µM (active) | IC50 (Cannabinoid receptor 2 [4]): 15.1 µM (inactive)

O=C(NC(NC(=S)Nc1cccc(Cl)c1)C(Cl)(Cl)Cl)OCc1ccccc1 (centres undefined)
IC50 [5]: > 69.5 µM (inactive) | IC50 [6]: > 7.72 µM (active) | EC50 [7]: 19.7 µM (active) | EC50 (Streptokinase A): 3.92 µM (active) | IC50 [8]: 24.4 µM (inactive) | IC50 (Mu-type opioid receptor [9]): > 32 µM (inactive) | EC50 (Mu-type opioid receptor [10]): > 32 µM (inactive) | IC50 [11]: 87 µM (active) | EC50 [12]: 19.6 µM (active) | EC50 [13]: 3.59 µM (active) | IC50 [14]: 12.3 µM (inactive) | EC50 [15]: > 32 µM (inactive) | IC50 [16]: > 10 µM (inactive) | IC50 [17]: > 100 µM (inactive) | EC50 (Streptococcus): 5.92 µM (active) | EC50 [18]: > 32 µM (inactive) | AC50 [19]: 1.53 µM (active)

Cc1cc(C(=O)CN2C(=O)C(=O)N(Cc3ccccc3)C2=O)c(C)n1-c1ccc2c(c1)OCCO2
EC50 [20]: > 195 µM (not active) | EC50 [21]: 15 µM (active)

Cc1cn(-c2cc(NC(=O)c3ccc(C)c(NC(=O)c4cccc(-c5cnnc(O)c5)c4)c3)cc(C(F)(F)F)c2)cn1
EC50 (Mu-type opioid receptor [22]): > 32 µM (inactive) | IC50 [23]: > 32 µM (inactive) | EC50 (Beta-galactosidase): > 31.5 µM (inactive) | IC50 [24]: 5.1 µM | EC50 [25]: > 32 µM (inactive) | IC50 [26]: 9.01 µM (active)

CC(C)CN(CC(C)C)S(=O)(=O)N1CCC(C(=O)NCCc2ccc(Cl)cc2)CC1
IC50 (Coagulation factor XII): > 50 µM (inactive)

CC(=NNC(=S)Nc1cccc(C)c1)c1ccccn1
AC50 [27]: 2.25 µM (active) | EC50 (Hexokinase HKDC1): 2.27 µM (active) | IC50 (Nonstructural protein 1): 8.54 µM (active) | EC50 (Hexokinase-1): > 80 µM (inactive)

Oc1[nH]nc(C(F)(F)F)c1/C=N/c1cccc(Cl)c1
EC50 (Troponin, cardiac muscle): > 71.5 µM (inactive)

Cn1c(=O)c(/C=N/c2ccccc2)c(O)c2ccccc21
IC50 [28]: > 100 µM (inactive) | IC50 [29]: > 100 µM (inactive)
